Experimental data published in the NIST ThermoML archive (doi:10.1016/j.jct.2012.10.028).
± gives the expanded uncertainty stated by the source.

How the values were obtained:
[1] = 101.33 kPa, Liquid, Vibrating tube method
[2] = refractive index (Na D-line) (dimensionless); settings: 298.2 K; 101.33 kPa; Liquid; Standard Abbe refractometry

mass density ([1]; 298.2 K) [kg/m3]	refractive index [2]	mass density ([1]; 293.15 K) [kg/m3]	SMILES
830.57 ± 0.31	1.4293 ± 0.0005	–	CCCCC(CC)CO (centres undefined) [2-ethyl-1-hexanol]
–	1.3878 ± 0.0005	866.58 ± 0.31	CC(=O)OCC(C)C [2-methylpropyl ethanoate]
943.04 ± 0.32	1.4503 ± 0.0005	–	O=C1CCCCC1 [cyclohexanone]
824.1 ± 0.31	1.427 ± 0.0005	–	CCCCCCCCO [octan-1-ol]
–	1.3325 ± 0.0005	–	O [water]
